From patent publication US10772884B2, “Sulphate salts of N-(3-(4-(3-(diisobutylamino)propyl)piperazin-1-yl)propyl)-1H-benzo[d]imidazol-2-amine, preparation thereof and use of the same” (ALZPROTECT, priority 2012, dated 2020)
Where a name gives a salt, the structure may show the parent alone. Each block holds one compound with its values, some of them ahead of it.

Experiments:
Assay type in all cases: physicochemical
[1] = XRPD analysis of crystallinity; conditions: powder, ambient
Procedure: X-ray powder diffraction (XRPD) analysis is performed on a Brüker—AXS D8 Advance diffractometer, using a copper anti-cathode, a mono-crystalline silicon sample holder and a position sensitive detector. Instrument operating conditions for X-rays pattern acquisition are described in Table 2.
The powder sample is dispersed on the silicon sample holder in a way to avoid preferred orientation (not randomly oriented crystals) and to ensure planarity of the specimen surface.

[2] = DSC analysis of crystalline phase; conditions: DSC endotherm
Procedure: DSC spectra. TA Instrument, DSC Q10.
DSC spectra were recorded on a TA DSC Q10 instrument within a temperature range of −10° C. to 300° C. or 400° C. and with 10° C. increments.

[3] = salt formation results (physical form)
Procedure: The hydrochloride, hydrobromide, acetate, tartrate, fumarate, malate, oxalate and sulphate salts of N-(3-(4-(3-(diisobutylamino)propyl)piperazin-1-yl)propyl)-1H-benzo[d]imidazol-2-amine were prepared according to procedures similar to those described in the previous examples or standard salt formation methods well known in the art.

[4] = Dynamic vapour sorption (DVS) with water
Procedure: Dynamic vapour sorption (DVS) analyses with water were performed on a DVS-Intrisic incubator from SMS Ltd, equipped with DVS-Intrisic Control Software 1.0.
A sample of about 5 to 10 mg, placed in an aluminium pan holder, was submitted to a full-cycle analysis (sorption followed by desorption) under the conditions described in Table 3.
The sample was pre-dried under a stream of dry filtered air until a stable mass was obtained. Relative humidity was then increased by 5% increments. At each step, the sample was allowed to increase until equilibrium is reached (dm/dt criterion), then relative humidity was increased further. Relative humidity was ramped up to 95%. After equilibration at this stage, desorption is started in a similar stepwise manner, with a sample weight allowed to stabilize after each incremental humidity decrease step.
DVS analysis was carried out according to the method described above.

[5] = sample left standing open to the air (hygroscopicity, stability); conditions: listed as chloride salt
Description: Both sulphate salts precipitated as solids. They were found stable when left open to the air. In contrast to the chloride salt, no hygroscopicity issue was observed.

Compound: CC(C)CN(CCCN1CCN(CCCNc2nc3ccccc3[nH]2)CC1)CC(C)C [Example 4, N-(3-(4-(3-(diisobutylamino)propyl)piperazin-1-yl)propyl)-1H-benzo[d]imidazol-2-amine, 2 eq sulphate salt]
crystallinity by XRPD [1]: good crystallinity

crystalline phase by DSC [2]: not crystalline
Physical form ([3]; Acid eq. added 1): Not crystalline^2
Compound: Tartrate

Physical form ([3]; Acid eq. added 1): No solid formed, oily residue
Physical form ([3]; Acid eq. added 2): No solid formed, oily residue
Compound: CC(=O)O [Acetate]

Compound: CC(C)CN(CCCN1CCN(CCCNc2nc3ccccc3[nH]2)CC1)CC(C)C [Example 1, N-(3-(4-(3-(diisobutylamino)propyl)piperazin-1-yl)propyl)-1H-benzo[d]imidazol-2-amine, 2.9 eq sulphate salt]
crystallinity by XRPD ([1]; sulphate salt): well good crystalline phase

Compound: CC(C)CN(CCCN1CCN(CCCNc2nc3ccccc3[nH]2)CC1)CC(C)C.O=S(=O)(O)O [Example 3, N-(3-(4-(3-(diisobutylamino)propyl)piperazin-1-yl)propyl)-1H-benzo[d]imidazol-2-amine, 1 eq sulphate salt]
crystallinity by XRPD [1]: good crystallinity
mass lost upon drying ([4]; 25° C./0% RH): 0.18%
remaining amount of water upon desorption ([4]; 25° C./0% RH): 4.6%
hygroscopicity (criterion: more than 2% by weight water uptake) ([4]; 25° C./60% RH): not hygroscopic
water uptake upon sorption ([4]; 25° C./60% RH, compared to sample mass after initial drying at 0% RH): 0.7%
residual water remaining upon desorption ([4]; 25° C./75% RH as printed, interval 95 to 90% RH): 10%
hysteresis (adsorbed water retained upon desorption) ([4]; 25° C./75% RH, interval 75 to 10% RH): up to 6.7%
water uptake upon sorption ([4]; 25° C./80% RH, compared to sample mass after initial drying at 0% RH): 1.5%
water uptake upon sorption ([4]; 25° C./90% RH, compared to sample mass after initial drying at 0% RH): 9.7%
water vapour uptake upon sorption ([4]; 25° C./95% RH, compared to sample mass after initial drying at 0% RH): 19.4%

Physical form ([3]; Acid eq. added 1): Crystalline powder (colorless
Physical form ([3]; Acid eq. added 2): Crystalline powder (colorless
Compound: Sulphate

Physical form ([3]; Acid eq. added 2): Gum
Physical form ([3]; Acid eq. added 3): Gum
Physical form ([3]; Acid eq. added 4): Crystalline powder
Compound: Oxalate

Physical form ([3]; Acid eq. added 1): Powder
Compound: Malate

Compound: CC(C)CN(CCCN1CCN(CCCNc2nc3ccccc3[nH]2)CC1)CC(C)C.O=C(O)C(=O)O.O=C(O)C(=O)O.O=C(O)C(=O)O.O=C(O)C(=O)O [4 eq oxalate salt, N-(3-(4-(3-(diisobutylamino)propyl)piperazin-1-yl)propyl)-1H-benzo[d]imidazol-2-amine, 4 eq oxalate salt, reference compound]
crystalline phase by DSC [2]: most well shaped and defined endotherm
crystallinity by XRPD [1]: little or poor crystallinity

Compound: CC(C)CN(CCCN1CCN(CCCNc2nc3ccccc3[nH]2)CC1)CC(C)C.O.O.O=S(=O)(O)O [di-hydrated form of example 3, di-hydrated form of N-(3-(4-(3-(diisobutylamino)propyl)piperazin-1-yl)propyl)-1H-benzo[d]imidazol-2-amine, 1 eq sulphate salt]
stability and hygroscopicity in second DVS cycle ([4]; 25° C., second sorption/desorption cycle): stable and non hygroscopic
water uptake for the di-hydrated form, experimentally determined ([4]; DVS 25° C.): 6.7%
theoretical water uptake for the di-hydrated form ([4]; calculated): 6.8%

hygroscopicity [5]: very hygroscopic
Compound: Cl [Chloride]

crystalline phase by DSC [2]: not crystalline
Physical form ([3]; Acid eq. added 1): Not crystalline^2
Compound: Fumarate
